Data reported in ChEMBL document CHEMBL4602655, “Synthesis and biological evaluation of Isosteviol derivatives as FXa inhibitors” (Bioorg Med Chem Lett, 2020).

Legend:
Coagulation factor X [1] = biological target: T1, Coagulation factor X (Homo sapiens, UniProt P00742); experiment: Inhibition of factor 10a (unknown origin)
Coagulation factor X [2] = biological target: T1, Coagulation factor X; experiment: Binding affinity to factor 10a (unknown origin) assessed as association rate constant by SPR assay
Plasma = experiment: Anticoagulant activity in plasma assessed as concentration required to double the activated partial thromboplastin time; type: ADME, cell-free
Coagulation factor X [3] = biological target: T1, Coagulation factor X; experiment: Binding affinity to factor 10a (unknown origin) assessed as dissociation rate constant by SPR assay
Coagulation factor X [4] = biological target: T1, Coagulation factor X; experiment: Binding affinity to factor 10a (unknown origin) by SPR assay

T1 sequence (P00742 41-179 limits assumed): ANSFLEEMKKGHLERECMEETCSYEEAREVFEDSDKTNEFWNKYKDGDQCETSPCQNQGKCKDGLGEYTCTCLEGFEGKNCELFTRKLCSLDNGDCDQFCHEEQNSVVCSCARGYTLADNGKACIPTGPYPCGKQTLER
T1 sequence (P00742 235-488 limits assumed): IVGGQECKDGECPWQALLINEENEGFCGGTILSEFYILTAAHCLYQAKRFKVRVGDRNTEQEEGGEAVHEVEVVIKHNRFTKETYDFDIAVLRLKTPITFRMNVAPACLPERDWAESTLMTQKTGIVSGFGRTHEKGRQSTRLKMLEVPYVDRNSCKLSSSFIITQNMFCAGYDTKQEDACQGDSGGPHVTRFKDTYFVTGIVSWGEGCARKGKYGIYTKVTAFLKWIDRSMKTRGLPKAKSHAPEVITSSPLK

Row | Structure (SMILES) | IC50 (Coagulation factor X [1]) | further results
1 | CCOC(=O)[C@]1(C)CCC[C@@]2(C)[C@@H]3CC[C@@]4(C)C[C@]3(CC[C@@H]21)C/C4=N\NC(=S)Nc1ccc(OC)cc1OC | 33.6 µM | 
2 | CCOC(=O)[C@]1(C)CCC[C@@]2(C)[C@@H]3CC[C@@]4(C)C[C@]3(CC[C@@H]21)C[C@H]4OCc1cn(-c2cccc(C)c2)nn1 | 41.7 µM | 
3 | CCOC(=O)[C@]1(C)CCC[C@@]2(C)[C@@H]3CC[C@@]4(C)C[C@]3(CC[C@@H]21)C/C4=N\NC(=S)Nc1cccc(Cl)c1 | 0.196 µM | Ka (Coagulation factor X [2]): 1.84 ×10⁴ /M/s; 2aPTT (Plasma): 17.12 µM; Kd (Coagulation factor X [3]): 1.56 ×10⁻¹ /s; Kd (Coagulation factor X [4]): 8.44 µM
4 | CCOC(=O)[C@]1(C)CCC[C@@]2(C)[C@@H]3CC[C@@]4(C)C[C@]3(CC[C@@H]21)C/C4=N\NC(=S)Nc1ccc(C)cc1 | 57.7 µM | 
5 | CCOC(=O)[C@]1(C)CCC[C@@]2(C)[C@@H]3CC[C@@]4(C)C[C@]3(CC[C@@H]21)C/C4=N\NC(=S)Nc1ccc(C(F)(F)F)cc1 | 8.66 µM | 
6 | CCOC(=O)[C@]1(C)CCC[C@@]2(C)[C@@H]3CC[C@@]4(C)C[C@]3(CC[C@@H]21)C[C@H]4OCc1cn(-c2ccc(Br)cc2)nn1 | 3.34 µM | 
7 | C[C@@]12CC[C@@H]3[C@@](CC[C@H]4[C@@]3(C)CCC[C@@]4(C)C(=O)O)(CC1=O)C2 [ISOSTEVIOL] | 0.642 µM | 
8 | CCOC(=O)[C@]1(C)CCC[C@@]2(C)[C@@H]3CC[C@@]4(C)C[C@]3(CC[C@@H]21)C[C@H]4OCc1cn(-c2ccc(C(C)C)cc2)nn1 | 20.3 µM | 
9 | CCOC(=O)[C@]1(C)CCC[C@@]2(C)[C@@H]3CC[C@@]4(C)C[C@]3(CC[C@@H]21)C/C4=N\NC(=S)Nc1cccc2ccccc12 | 0.955 µM | 
10 | CCOC(=O)[C@]1(C)CCC[C@@]2(C)[C@@H]3CC[C@@]4(C)C[C@]3(CC[C@@H]21)C[C@H]4OCc1cn(-c2ccc(F)cc2)nn1 | 8.74 µM | 
11 | CCOC(=O)[C@]1(C)CCC[C@@]2(C)[C@@H]3CC[C@@]4(C)C[C@]3(CC[C@@H]21)C[C@H]4OCc1cn(-c2cccc3ccccc23)nn1 | 4.87 µM | 
12 | CCOC(=O)[C@]1(C)CCC[C@@]2(C)[C@@H]3CC[C@@]4(C)C[C@]3(CC[C@@H]21)C[C@H]4OCc1cn(-c2ccc3c(c2)OCO3)nn1 | 7.57 µM | 
13 | CCOC(=O)[C@]1(C)CCC[C@@]2(C)[C@@H]3CC[C@@]4(C)C[C@]3(CC[C@@H]21)C/C4=N\NC(=S)Nc1ccc(OC)cc1 | 6.65 µM | 
14 | CCOC(=O)[C@]1(C)CCC[C@@]2(C)[C@@H]3CC[C@@]4(C)C[C@]3(CC[C@@H]21)C[C@H]4OCc1cn(Cc2ccccc2)nn1 | 29.4 µM | 
15 | CCOC(=O)[C@]1(C)CCC[C@@]2(C)[C@@H]3CC[C@@]4(C)C[C@]3(CC[C@@H]21)C/C4=N\NC(=S)Nc1cccc(C)c1 | 3.76 µM | 
16 | CCOC(=O)[C@]1(C)CCC[C@@]2(C)[C@@H]3CC[C@@]4(C)C[C@]3(CC[C@@H]21)C[C@H]4OCc1cn(-c2ccccc2)nn1 | 10.4 µM | 
17 | CCOC(=O)[C@]1(C)CCC[C@@]2(C)[C@@H]3CC[C@@]4(C)C[C@]3(CC[C@@H]21)CC4=O | 0.786 µM | 
18 | CCOC(=O)[C@]1(C)CCC[C@@]2(C)[C@@H]3CC[C@@]4(C)C[C@]3(CC[C@@H]21)C[C@H]4OCc1cn(-c2ccc(C)cc2)nn1 | 5.53 µM | 
19 | CCOC(=O)[C@]1(C)CCC[C@@]2(C)[C@@H]3CC[C@@]4(C)C[C@]3(CC[C@@H]21)C/C4=N\NC(=S)Nc1cccc(N(C)C)c1 | 29.6 µM | 
20 | CCOC(=O)[C@]1(C)CCC[C@@]2(C)[C@@H]3CC[C@@]4(C)C[C@]3(CC[C@@H]21)C/C4=N\NC(=S)Nc1ccccc1Cl | 0.209 µM | Ka (Coagulation factor X [2]): 1.88 ×10⁴ /M/s; Kd (Coagulation factor X [3]): 1.87 ×10⁻¹ /s; Kd (Coagulation factor X [4]): 9.98 µM

Row | Structure (SMILES) | IC50 (Coagulation factor X [1]) | further results
21 | CCOC(=O)[C@]1(C)CCC[C@@]2(C)[C@@H]3CC[C@@]4(C)C[C@]3(CC[C@@H]21)C/C4=N\NC(=S)Nc1ccc(C#N)cc1 | 13.6 µM | 
22 | CCOC(=O)[C@]1(C)CCC[C@@]2(C)[C@@H]3CC[C@@]4(C)C[C@]3(CC[C@@H]21)C/C4=N\NC(=S)Nc1ccc(F)cc1 | 27.5 µM | 
23 | CCOC(=O)[C@]1(C)CCC[C@@]2(C)[C@@H]3CC[C@@]4(C)C[C@]3(CC[C@@H]21)C[C@H]4O | 12.7 µM | 
24 | CCOC(=O)[C@]1(C)CCC[C@@]2(C)[C@@H]3CC[C@@]4(C)C[C@]3(CC[C@@H]21)C[C@H]4OCc1cn(-c2ccccc2C)nn1 | 34.5 µM | 
25 | CCOC(=O)[C@]1(C)CCC[C@@]2(C)[C@@H]3CC[C@@]4(C)C[C@]3(CC[C@@H]21)C/C4=N\N | 2.82 µM | 
26 | CCOC(=O)[C@]1(C)CCC[C@@]2(C)[C@@H]3CC[C@@]4(C)C[C@]3(CC[C@@H]21)C[C@H]4OCc1cn(-c2cccc(Cl)c2)nn1 | 17.7 µM | 
27 | CCOC(=O)[C@]1(C)CCC[C@@]2(C)[C@@H]3CC[C@@]4(C)C[C@]3(CC[C@@H]21)C/C4=N\NC(=S)Nc1ccc(Br)cc1 | 8.77 µM | 
28 | CCOC(=O)[C@]1(C)CCC[C@@]2(C)[C@@H]3CC[C@@]4(C)C[C@]3(CC[C@@H]21)C[C@H]4OCc1cn(-c2ccc(Cl)cc2)nn1 | 27.3 µM | 
29 | CCOC(=O)[C@]1(C)CCC[C@@]2(C)[C@@H]3CC[C@@]4(C)C[C@]3(CC[C@@H]21)C[C@H]4OCc1cn(-c2cc(C)cc(C)c2)nn1 | 6.33 µM | 
30 | CCOC(=O)[C@]1(C)CCC[C@@]2(C)[C@@H]3CC[C@@]4(C)C[C@]3(CC[C@@H]21)C/C4=N\NC(=S)Nc1ccc([N+](=O)[O-])cc1 | 8.46 µM | 
31 | CCOC(=O)[C@]1(C)CCC[C@@]2(C)[C@@H]3CC[C@@]4(C)C[C@]3(CC[C@@H]21)C/C4=N\NC(=S)Nc1ccccc1C | 4.15 µM | 
32 | CCOC(=O)[C@]1(C)CCC[C@@]2(C)[C@@H]3CC[C@@]4(C)C[C@]3(CC[C@@H]21)C/C4=N\NC(=S)Nc1cccc(Cl)c1Cl | 7.73 µM | 
33 | CCOC(=O)[C@]1(C)CCC[C@@]2(C)[C@@H]3CC[C@@]4(C)C[C@]3(CC[C@@H]21)C/C4=N\NC(=S)Nc1cccc(OC)c1 | 18.4 µM | 
34 | CCOC(=O)[C@]1(C)CCC[C@@]2(C)[C@@H]3CC[C@@]4(C)C[C@]3(CC[C@@H]21)C/C4=N\NC(=S)Nc1ccc(C(C)(C)C)cc1 | 9.03 µM | 
35 | CCOC(=O)[C@]1(C)CCC[C@@]2(C)[C@@H]3CC[C@@]4(C)C[C@]3(CC[C@@H]21)C/C4=N\NC(=S)Nc1ccccc1 | 13.4 µM | 
36 | C#CCO[C@@H]1C[C@]23CC[C@H]4[C@@](C)(CCC[C@@]4(C)C(=O)OCC)[C@@H]2CC[C@@]1(C)C3 | 32.4 µM | 
37 | CCOC(=O)[C@]1(C)CCC[C@@]2(C)[C@@H]3CC[C@@]4(C)C[C@]3(CC[C@@H]21)C[C@H]4OCc1cn(-c2ccc(OC)cc2)nn1 | 19.3 µM | 
38 | CCOC(=O)[C@]1(C)CCC[C@@]2(C)[C@@H]3CC[C@@]4(C)C[C@]3(CC[C@@H]21)C/C4=N\NC(=S)Nc1ccc(C(C)C)cc1 | 54.9 µM | 
39 | CCOC(=O)[C@]1(C)CCC[C@@]2(C)[C@@H]3CC[C@@]4(C)C[C@]3(CC[C@@H]21)C/C4=N\NC(=S)Nc1ccc(Cl)cc1 | 0.153 µM | Ka (Coagulation factor X [2]): 1.93 ×10⁴ /M/s; 2aPTT (Plasma): 9.31 µM; Kd (Coagulation factor X [3]): 1.45 ×10⁻¹ /s; Kd (Coagulation factor X [4]): 7.52 µM
